According to patent US4599331A, “Etianic acids as antiangiogenics” (Syntex (U.S.A.) Inc., priority 1984, dated 1986):
Values joined by “and” are separate entries in the source; they are usually repeats but may differ in a detail not shown here. Equal entries are not always repeated.

Tests used:
Epidermal Growth Factor = test: hamster cheek pouch (HCP) angiogenesis inhibition, EGF stimulus; format: in vivo, Male Syrian Golden hamsters; settings: Table 1; 10 μg EGF; between 0.5 and 4 mg/kg s.c. daily; each number independent result, average of six animals
Method: Each compound of the series was also tested for anti-angiogenic activity by an in vivo test that measured vascularization in a hamster's cheek pouch in response to either an angiogenic polypeptide growth factor, epidermal growth factor (EGF) or an induced […].
In this example, the in vivo angiogenesis inhibition activity of etianic acid esters was tested. Male Syrian Golden hamsters, weighing between 120 g and 150 g were anaesthetized by intraperitoneal (I.P.) injection of a rodent anaesthetic mixture consisting of 50 mg/kg ketamine hydrochloride, 5 mg/kg xylazine and 1 mg/kg acepromazine. The left cheek pouch of each animal was everted with a pincet and pinned down to a plexiglass-rubber stage and observed through a Zeiss stereomicroscope. 10 μg of EGF or 3×10^5 Hamster Melanoma RPM1 1846 tumor cells in 10 μl Cibachrome Blue agarose (Amicon) were injected subcutaneously in the left lower quadrant of the pouch with a Hamilton syringe.
The pouch was then reinserted and animals were kept under observation until recovered from anaesthesia.
The animals were dosed daily with one test compound, starting one day before stimulus injection and continuing until observation. The test compounds were dissolved in a minimum volume of ethanol and diluted in sterile phosphate buffer solution. […]
Either five days or twelve days after the EGF or tumor cell injection, animals were anaesthetized by I.P. injection of the rodent anaesthetic mixture. The pouch was everted on the stage and examined under the stereomicroscope. Pictures were taken with a 35 mm using Kodak Tungsten 50 professional films.
The following subjective scoring was used for evaluating the photographs:
1: minimal branching of vessels in the vicinity of injection site.
2: new vessels reach injection site, area involved is minimal (<50% of area surrounding injection site).
3: many vessels reach and cross injection site, new vessels are tortuous, (>50% of area surrounding injection site).
4: "full blown", many tortuous vessels, leakages, hemorrhages, 100% of area around injection site, invasion of new vessels into non-injected areas.
Results are expressed as the mean of the score. The results are shown in Tables 1 and 2 are percent inhibition of HCP Stimulus.

glucocorticoid receptor = molecular target: T1, glucocorticoid receptor (Mus musculus, UniProt P06537); test: competition for 3H-dexamethasone binding sites in LE II cytosol (glucocorticoid receptor affinity); settings: Table 1; displacement of 25 nM 3H-DEX, LE II (mouse lung capillary endothelial) cytosol, 3 hours on ice; read-out: IC50 Binding LEII
T1 construct: endogenous in cells; host or cells: LE II (mouse lung capillary endothelial) cells, 100,000 x g cytosol
T1 sequence (P06537 1-792): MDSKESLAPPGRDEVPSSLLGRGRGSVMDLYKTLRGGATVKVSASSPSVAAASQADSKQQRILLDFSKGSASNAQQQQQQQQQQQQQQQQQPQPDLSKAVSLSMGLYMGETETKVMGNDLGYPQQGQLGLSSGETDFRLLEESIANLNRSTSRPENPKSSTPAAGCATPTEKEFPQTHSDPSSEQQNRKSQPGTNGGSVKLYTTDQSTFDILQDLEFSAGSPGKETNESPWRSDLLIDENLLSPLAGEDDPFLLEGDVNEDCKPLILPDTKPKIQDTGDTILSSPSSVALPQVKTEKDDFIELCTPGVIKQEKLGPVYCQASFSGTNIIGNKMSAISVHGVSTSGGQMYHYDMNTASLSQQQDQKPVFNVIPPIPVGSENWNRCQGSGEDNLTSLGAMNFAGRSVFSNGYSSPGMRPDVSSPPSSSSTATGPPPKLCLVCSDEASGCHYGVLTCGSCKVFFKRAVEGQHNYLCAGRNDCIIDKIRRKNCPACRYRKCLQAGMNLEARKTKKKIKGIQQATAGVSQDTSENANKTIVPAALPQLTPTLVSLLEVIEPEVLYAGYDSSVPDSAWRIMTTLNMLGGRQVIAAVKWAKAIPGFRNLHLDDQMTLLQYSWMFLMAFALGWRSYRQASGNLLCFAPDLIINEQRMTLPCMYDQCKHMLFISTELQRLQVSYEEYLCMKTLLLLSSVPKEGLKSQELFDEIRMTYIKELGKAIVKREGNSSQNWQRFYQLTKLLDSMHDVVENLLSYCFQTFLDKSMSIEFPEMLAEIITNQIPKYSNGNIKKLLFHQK
Method: LE II (mouse lung capillary endothelial) or HTC (rat hepatoma) cells were grown in Dulbecco's modified Eagle's (DMEM) medium plus 10% fetal calf serum (FCS), in 150 cm^2 T-flasks. Approximately 20 flasks of LE II cells or 10 flasks of HTC cells were needed for a 60-80 sample assay.
Cell monolayers were washed 3 times with Phosphate Buffered Saline (PBS) and harvested by scraping with a rubber policeman into an ice-cold sonication buffer of 0.25M sucrose; 10 mM Tris-HCl, pH 7.4; 5 mM ethylenediaminetetraacetic acid (EDTA); 5 mM dithiothereitol; and 10 mM sodium molybdate. All subsequent steps were performed at 4° C. The cells were pooled into a final volume of 8-12 mls, broken by sonication for 45 seconds with the microtip of a Branson sonifier at setting #3 and the residue was then centrifuged at 100,000 X g for 30 minutes with a Beckman L8-50, Ti50 rotor, at 40,000 rpm. […] Incubations were peformed in a final volume of 1 ml in 1.5 ml Eppendorf centrifuge tubes for 3 hours on ice.
Fine Sephadex G-50 gel was swollen and equilibrated against column buffer of 100 mM Tris-HCl, pH 7.8; and 3 mM CaCl2. Columns were poured to a final packed volume of 4.5 ml in 5 ml plastic disposable pipets.
The packed columns were then drained of buffer and the 1 ml incubated samples were applied to each. The samples were washed into the columns with 0.5 ml of column buffer, and the exclusion volumes containing the protein peaks were eluted with another 1 ml of column buffer and collected. Aliquots of 750 μl of Biorad protein reagent were diluted 1:5 in H2 O. OD630 nm reading were compared with those obtained for a bovine serum albumin standard curve.

Structure (SMILES) | % Inhibition HCP Stimulus Epidermal Growth Factor (Epidermal Growth Factor) | IC50 (glucocorticoid receptor) [nM]
CCC(=O)O[C@]1(C(=O)OC)[C@@H](C)C[C@H]2[C@@H]3CCC4=CC(=O)C=C[C@]4(C)[C@@]3(F)[C@@H](O)C[C@@]21C [compound 1] | 70% and 77% | 2
CCC(=O)O[C@]1(C(=O)OC)[C@@H](C)C[C@H]2[C@@H]3CC(F)C4=C(F)C(=O)C=C[C@]4(C)[C@@]3(F)[C@@H](O)C[C@@]21C (stereo partly drawn) [compound 3] | 95% and 91% | 15
CCCC(=O)O[C@]1(C(=O)OC)[C@@H](C)C[C@H]2[C@@H]3CC(F)C4=CC(=O)C=C[C@]4(C)[C@@]3(F)[C@@H](O)C[C@@]21C (stereo partly drawn) [compound 4] | 100% and 78% | 0.25
CCC(=O)O[C@]1(C(=O)OC)[C@H](C)C[C@H]2[C@@H]3CC(F)C4=CC(=O)C=C[C@]4(C)[C@@]3(F)[C@@H](O)C[C@@]21C (stereo partly drawn) [compound 7] | 57% | 0.25
CCC(=O)O[C@]1(C(=O)OC)[C@H](C)C[C@H]2[C@@H]3CC(F)C4=C(F)C(=O)C=C[C@]4(C)[C@@]3(F)[C@@H](O)C[C@@]21C (stereo partly drawn) [compound 8] | 100% and 72% and 82% | 0.25
CCCC(=O)O[C@]1(C(=O)OC)[C@H](C)C[C@H]2[C@@H]3CC(F)C4=CC(=O)C=C[C@]4(C)[C@@]3(F)[C@@H](O)C[C@@]21C (stereo partly drawn) [compound 9] | 100% | 0.025
